# Where two headings read alike, the source gives them in different places.
# How the values were obtained:
# [1] = tested on: NF54-pfs16-LUC-GFP stage IV gametocytes; test: Plasmodium falciparum late stage gametocyte (LSG) image-based assay; format: cell-based; conditions: for IC50: Plasmodium falciparum
# [2] = tested on: P. falciparum ABS; conditions: cited from earlier work; for EC50: ChEMBL Data
# [3] = tested on: P. falciparum stage V gametocytes; conditions: cited from earlier work; for activity against gametocytes (stage V), PBox supporting information: ref Pbox supporting information; for IC50 / PF stage V GAMS PBox IC50 µM: stage V gametocytes; for IC50: read-out: PF stage V GAMS PBox IC50
# [4] = tested on: HEK293 cells; test: HEK293 resazurin cell cytotoxicity assay; conditions: Homo sapiens; for inhibition at 20 µM: HEK293, read-out: HEK % Inhibition 20uM/IC50 Discovery Biology
# [5] = tested on: liver stage; conditions: cited from earlier work
# [6] = tested on: HepG2; conditions: read-out: HepG2 PBox CC50 µM, cited from earlier work
# [7] = tested on: Plasmodium falciparum 3D7 asexual blood stage; test: microbe, parasite or virus in culture
# [8] = tested on: T. b. brucei 427 bloodstream trypanosomes; test: T. b. brucei resazurin viability assay; format: cell-based, Trypanosoma brucei brucei; conditions: Trypanosoma brucei
# [9] = tested on: L. donovani MHOM/IN/80/DD8 intracellular amastigotes; test: Leishmania donovani intracellular amastigote assay in THP-1 cells; format: cell-based; conditions: Leishmania donovani, THP-1, intracellular amastigotes
# [10] = tested on: T. cruzi intracellular amastigotes; test: Intracellular anti-Trypanosoma cruzi image-based assay (amastigotes); format: cell-based; conditions: Trypanosoma cruzi; intracellular amastigotes, Discovery Biology; read-out: T cruzi Discovery Biology IC50
# [11] = NF54, read-out: Pf Stage IV GAMS Discovery Biology IC50 µM, stage IV gametocytes
# [12] = P. falciparum 3D7, ref PBox supporting information, read-out: Pf 3D7 Pbox IC50
# [13] = ref PBox supporting information
# [14] = HEK293, read-out: HEK % Inhibition 20uM/IC50 Discovery Biology (IA)
# [15] = ref Pbox supporting information
# [16] = 3D7, read-out: Pf 3D7 Discovery Biology IC50 µM, P. falciparum 3D7 asexual blood stage
# [17] = NF54, read-out: Pf Stage IV GAMS Discovery Biology IC50 µM, stage IV gametocytes, Discovery Biology
# [18] = TCMDC, read-out: TCMDC (ref 93) EX50
# [19] = Pf 3D7, ref Pathogen Box supporting information, read-out: Pf 3D7 Pbox IC50
# [20] = ref Pathogen Box supporting information
# [21] = liver stage, ref Pathogen Box supporting information, read-out: LIVER STAGE Pbox IC50
# [22] = HepG2 CC50, ref Pathogen Box supporting information
# [23] = 3D7, read-out: Pf 3D7 Discovery Biology IC50 µM, P. falciparum 3D7 asexual blood stage, Discovery Biology
# [24] = read-out: T b.brucei Discovery Biology IC50
# [25] = PBox compounds, read-out: IC50 T. brucei brucei (Discovery Biology)
# [26] = Discovery Biology, some values carry an asterisk, read-out: L, donovani Discovery Biology IC50 µM
# [27] = HEK293, read-out: HEK % Discovery Biology IC50 uM
# [28] = NITD, read-out: NITD (ref 94) EC50
SMILES,activity in the Discovery Biology stage IV gametocyte (LSG) assay [1],"IC50 [1, 11] [µM]","IC50 [2, 12] [nM]","activity against gametocytes (stage V), PBox supporting information [3]","IC50 [3, 13] [nM]","IC50 [4, 14] [µM]","IC50 [1, 17] [µM]","EC50 [2, 18] [nM]","IC50 [2, 19] [nM]","IC50 [3, 20] [nM]","IC50 [5, 21] [nM]","CC50 [6, 22] [µM]","IC50 [7, 23] [µM]",also measured
O=C(Nc1nc(-c2ccccn2)cs1)C1CC1c1ccccc1F (stereo not shown) [MMV1028806],demonstrate activity,0.42,> 2000,demonstrate activity,520,> 20,,,,,,,,
CCn1ncc2c(NC3CCOCC3)c(CNC(=O)c3ccnn3C)c(C)nc21 [MMV026356],,0.74,280,,240,> 20,,,,,,,,"EC50 ([2]; P. falciparum, read-out: TCMDC (ref 93) EX50): 530 nM; IC50 [5, 15]: 1600 nM; CC50 [6, 13]: > 10 µM; IC50 [7, 16]: 0.27 µM"
CCN(CC)S(=O)(=O)c1ccc(Cl)c(C(=O)Nc2ccc3nc(C)sc3c2)c1 [MMV019721],,,,,,,0.79,800,500,3910,1310,> 10,0.78,
CCCn1c(NC(=O)c2ccc3ccccc3n2)nc2ccccc21 [MMV1030799],demonstrate activity,2.5,> 2000,demonstrate activity,560,> 20,,,,,,,,"IC50 [7, 16]: 2.59 µM"
NS(=O)(=O)c1cccc(-c2ccc3ncc(N4CCOCC4)nc3c2)c1 [MMV023860],,,,,,,2.13,990,1500,1330,1820,> 10,0.89,inhibition at 20 µM [4]: 40%
c1ccc(-c2cc(N3CCCCC3)c3ccccc3n2)nc1 [MMV560185],demonstrate activity,0.71,> 2000,demonstrate activity,510,> 20,,,,,,,,"IC50 [5, 15]: 9700 nM; CC50 [6, 13]: > 10 µM"
O=C(NCCN1CCCC1)c1cc(NCCCCN2CCC(F)(F)CC2)nc2ccc(Cl)cc12 [MMV667494],,0.12,7,,,> 20,,,,,,,,"PF stage V GAMS PBox IC50 µM [3, 13]: KTBA; LIVER STAGE Pbox IC50 µM [5, 15]: KTBA; IC50 ([7]; 3D7, read-out: Pf 3D7 Discovery Biology IC50, P. falciparum 3D7 asexual blood stage, nM): < 0.01 µM"
Cc1ccc2c(c1C)NC(=O)C21NN=C(c2ccccc2)S1 (stereo not shown) [MMV019189],,,,,,,1.97,750,1130,900,880,> 7.5,2.28,"IC50 [8, 24]: 4680 nM"
Cc1ccc(-c2nc(CN(Cc3ccccn3)C(C)C)cs2)o1 [MMV1088520],,0.67,> 2000,,450,,,,,,,,,inhibition at 20 µM [4]: 79%
N#Cc1ccc(-c2cnc(N)c(-c3ccc(C(N)=O)cc3)n2)cc1 [MMV085499],,0.55,95,,140,> 20,,,,,,,,"EC50 ([2]; P. falciparum, read-out: NITD (ref 94) EC50): 60 nM; IC50 [5, 15]: 280 nM; CC50 [6, 13]: > 10 µM; IC50 [7, 16]: 0.19 µM"
O=C(NCCN1CCCC1)c1cc(NCCN2CCOCC2)nc2ccc(Cl)cc12 [MMV634140],,0.39,100,,,> 20,,,,,,,,"PF stage V GAMS PBox IC50 µM [3, 13]: KTBA; LIVER STAGE Pbox IC50 µM [5, 15]: KTBA; IC50 [7, 16]: 0.09 µM"
COc1cc(-c2cc(-c3ccc(S(C)(=O)=O)cc3)cnc2N)ccc1O [MMV010576],,,,,,,0.15,100,100,66,2520,> 10,0.07,"IC50 ([9]; PBox compounds, read-out: IC50 L. donovani (Discovery Biology)): 5.18 µM"
O=C(Nc1ccc(N2CCNCC2)cc1)c1ccn2ncc(-c3cccc(Cl)c3)c2n1 [MMV022478],demonstrate activity,,,demonstrate activity,,,2.89,920,780,620,> 10000,> 10,1.29,"IC50 [10]: 4700 nM; IC50 [8, 25]: 1450 nM; IC50 [9, 26]: 5.02 µM; IC50 [4, 27]: 8.11 µM"
CN1CCC(NCc2cccc(-c3ccc(S(=O)(=O)NCc4ccccc4)cc3)c2)CC1 [MMV022029],,,,,,,4.04,690,820,1420,4550,> 10,0.69,"IC50 [8, 25]: 2380 nM; IC50 [9, 26]: 5.03 µM; inhibition at 20 µM [4]: 100%"
COc1ccc(-c2cnc3ccc(NCc4ccc(S(N)(=O)=O)cc4)nn23)cn1 [MMV010545],,,,,,,1.17,870,490,1030,6800,> 10,0.58,
Cc1cc(C)nc(-n2nc(C)cc2Nc2ccccc2)n1 [MMV062221],demonstrate activity,0.57,> 2000,demonstrate activity,220,> 20,,,,,,,,
Cc1cc(Nc2ccc(C(F)(F)F)cc2)n2ccnc2n1 [MMV011229],did not find this compound to be active,,,ktba,,,,,,,,,,"IC50 ([2]; ref Pbox supporting information, read-out: ABS activity, PBox supporting information): 380 nM; activity against liver stage, PBox supporting information [5, 15]: ktba"
Nc1nccc2ccc(-c3ccc4nccn4c3)cc12 [MMV023233],demonstrate activity,,,demonstrate activity,,,3.08,100,160,400,,,0.11,"IC50 [8, 24]: 3290 nM; inhibition at 20 µM [4]: 74%"
Cc1ccc(NC(=O)c2nc[nH]c2C(=O)Nc2nc3ccccc3[nH]2)c(C)c1 [MMV011903],,,,,,,,,360,> 8300,> 10000,> 10,,"EC50 [2, 28]: 730 nM"
CN(C)c1cc(NC(=O)Nc2ccccc2)c2ccccc2n1 [MMV006901],only moderately active,,,,,,,410,600,3130,> 10000,> 10,,"IC50 [8, 25]: 3360 nM; EC50 [2, 28]: 150 nM"
O=C(Nc1ccccc1)c1ccc(-c2cc3ccncc3cc2OC2CCNCC2)s1 [MMV024035],,,,,,,4.48,650,570,2280,7370,> 7.5,0.31,"IC50 [8, 24]: 2720 nM; IC50 [4, 27]: 6.67 µM"
COc1ccc(-c2cnc3ccc(N4CCCC4)nn23)cc1OC [MMV023985],,,,,,,5.83,770,700,410,630,> 10,1.99,
COc1cccc(CC(=O)N2CCC(n3c(C)nc4ccc(F)cc43)CC2)c1 [MMV020081],demonstrate activity,,,demonstrate activity,,,0.68,910,240,310,,,0.21,

# — PMC5571359, “Screening the Medicines for Malaria Venture Pathogen Box across Multiple Pathogens Reclassifies Starting Points for Open-Source Drug Discovery” (Antimicrobial Agents and Chemotherapy, 2017)
